Where two headings read alike, the source gives them in different places.
Tests used:
[1] = tested on: left auricle of the guinea pig; assay: Functional refractory period of the left auricle, paired electrical stimulation (method of Govier); details: for percent lengthening of refractory period at 0.01 µM: Cavia porcellus, read-out: Antiarrhythmic Effect (Lengthening of the refractory period in percent); for percent lengthening of refractory period at 0.01 µM / Antiarrhythmic Effect (Lengthening of the refractory period in percent): Table 2, dose in each case 10^^-5 millimoles/liter; for Antiarrhythmic Effect (Lengthening of the Refractory Period) ED25: Table 1, effective dose which lengthens the refractory period by 25 percent
Description: Evidence of the anti-arrhythmic effect of the new compounds is obtained in experimental animals by determination of the functional refractory period of the left auricle of the guinea pig with the aid of paired electrical stimulation employing the method of W. C. Govier, J. Pharmacol. Exp. Therap. 148, 100 - 105 (1965). In this experimental arrangement, those anti-arrhythmic agents already known for use in therapy, of differing structure and of different points of attack in the human, all distinguish themselves by lengthening the functional refractory period. The method additionally permits a determination of the effects of the substances on the contractile force of the heart muscle [cf. Reuter and Heeg, Naunyn-Schmiedeberg's Arch. Pharmak. 268, 323 - 333 (1971) and Zettler and Strubelt, Naunyn-Schmiedeberg's Arch. Pharmak. 271, 335 - 345 (1971)].
The testing of the substances in each case involves up to thirty individual experiments. For the dosage effect relationships, linear regression functions were calculated [A. Lindner, Statistische Methoden, 3rd Edition, Birkhaeuser Verlag, Basel (1969)], wherein the maximum percentage deviations from the starting value over a period of up to 60 minutes after addition of the test substance to the bath fluid were employed.
In following Table 1, column I, the optical isomers of one of the compounds of the invention and known anti-arrhythmic agents are named. Column II reports their anti-arrhythmic effect. Column III gives the inotropic effect, and column IV represents the therapeutic breadth of the compounds. The ED25 is the effective dose which lengthens the refractory period by 25 percent or reduces the contractile force by 25 percent.
The dose in each case is 10^^-5 millimoles/liter.

[2] = tested on: disturbances of the heart-beat rhythm; assay: Aconitine-induced disturbances of the heart rhythm, long term effect after peroral treatment; assay type: in vivo; details: rats, perorally 400 mg/kg, eight hours after administration, vs untreated animals
Description: (§1) The anti-arrhythmic effect of the new compounds can also be determined in intact test animals by experimentally-induced disturbances of the heart rhythm. If rats are continually infused intravenously with aconitine, serious disturbances of the heart-beat rhythm, such as extrasystoles, ventricular tachycardia, and ventricular flutter, which disturbances eventually lead to the death of the test animals, are evident in an electrocardiogram. […] Bianchi et al., Arzneim. Forsch. 18, 845 - 850 (1968); Haas and Busch, Arzneim. Forsch. 18, 401 - 407 (1968); Haas et al., Arzneim. Forsch. 21, 1392 - 1399 (1971); Marmo, Naunyn-Schmiedeberg's Arch. Pharmak. 269, 231 - 247 (1971); Strubelt et al., Naunym-Schmiedeberg's Arch. Pharmak. 271, 346 - 360 ( 1971)].

[3] = tested on: left auricle of the guinea pig; assay: Inotropic effect: contractile force of the heart muscle (left auricle); details: Table 1; for Inotropic Effect (Decrease in Contractile Force) ED25: effective dose which reduces the contractile force by 25 percent; for Therapeutic Breadth (III/II): ratio inotropic ED25 / antiarrhythmic ED25
Description: (§2) Evidence of the anti-arrhythmic effect of the new compounds is obtained in experimental animals by determination of the functional refractory period of the left auricle of the guinea pig with the aid of paired electrical stimulation employing the method of […]. Pharmacol. Exp. Therap. 148, 100 - 105 (1965). In this experimental arrangement, those anti-arrhythmic agents already known for use in therapy, of differing structure and of different points of attack in the human, all distinguish themselves by lengthening the functional refractory period. The method additionally permits a determination of the effects of the substances on the contractile force of the heart muscle [cf. Reuter and Heeg, Naunyn-Schmiedeberg's Arch. Pharmak. 268, 323 - 333 (1971) and Zettler and Strubelt, Naunyn-Schmiedeberg's Arch. Pharmak. 271, 335 - 345 (1971)]. The testing of the substances in each case involves up to thirty individual experiments. For the dosage effect relationships, linear regression functions were calculated [[…] Methoden, 3rd Edition, Birkhaeuser Verlag, Basel (1969)], wherein the maximum percentage deviations from the starting value over a period of up to 60 minutes after addition of the test substance to the bath fluid were employed. In following Table 1, column I, the optical isomers of one of the compounds of the invention and known anti-arrhythmic agents are named. Column II reports their anti-arrhythmic effect. Column III gives the inotropic effect, and column IV represents the therapeutic breadth of the compounds. The ED25 is the effective dose which lengthens the refractory period by 25 percent or reduces the contractile force by 25 percent.

[4] = as above; set-up: species or system guinea pig; details: guinea pig, left auricle, Table 1; ratio inotropic ED25 / antiarrhythmic ED25; read-out: Therapeutic Breadth (III/II)
Description: as §2

[5] = tested on: disturbances of the heart-beat rhythm; assay: Aconitine-induced disturbances of the heart rhythm, intravenous pretreatment; assay type: in vivo, rats; details: for ED25 / ED50: Rattus norvegicus; for Ventricular Flutter ED25: dose raising administered aconitine dose by 25 percent prior to ventricular flutter; for Ventricular Flutter ED50: dose raising administered aconitine dose by 50 percent prior to ventricular flutter
Description: as §1
The ED25 and ED50 are the intravenous doses, in mg/kg, which raise the administered aconitine doses, in comparison with the aconitine control, by 25 percent or 50 percent prior to the appearance of extrasystoles, ventricular tachycardia, and ventricular flutter.

[6] = intravenous, dose raising administered aconitine dose by 25 percent prior to ventricular tachycardia, read-out: Ventricular Tachycardia ED25
[7] = intravenous, dose raising administered aconitine dose by 50 percent prior to ventricular tachycardia, read-out: Ventricular Tachycardia ED50

Compound: COc1ccc(CC2(C)CN(C(c3ccccc3)c3ccc(Cl)cc3)CCN2CCO)cc1OC (stereo not drawn) [1-(p-chlorophenyl-phenylmethyl)-3-methyl-3-(3,4-dimethoxybenzyl)-4-hydroxyethyl-piperazine]
- percent lengthening of refractory period at 0.01 µM [1]: 55%

Compound: COc1ccc(CC2(C)CN(C(c3ccccc3)c3ccc(Cl)cc3)CCN2)cc1OC (stereo not drawn) [1-(p-chlorophenyl-phenylmethyl)-3-methyl-3-(3,4-dimethoxybenzyl)-piperazine]
- percent lengthening of refractory period at 0.01 µM [1]: 28%

Compound: COc1ccc(CC2(C)CN(C(c3ccccc3)c3ccccc3)CCN2CCO)cc1OC (stereo not drawn) [1-diphenylmethyl-3-methyl-3-(3,4-dimethoxybenzyl)-4-hydroxyethylpiperazine]
- percent lengthening of refractory period at 0.01 µM [1]: 55%

Compound: COc1ccc(CC2(C)CN(C(c3ccccc3)c3ccccc3)CCN2C)cc1OC (stereo not drawn) [1-diphenylmethyl-3-methyl-3-(3,4-dimethoxybenzyl)-4-methyl-p] [1-diphenylmethyl-3-methyl-3-(3,4-dimethoxybenzyl)-4-methyl-piperazine]
- Antiarrhythmic Effect (Lengthening of the refractory period in percent) [1]: 64%

Compound: COc1ccc(CC2(C)CN(C(c3ccccc3)c3ccccc3)CCN2)cc1OC (stereo not drawn) [1-diphenylmethyl-3-methyl-3-(3,4-dimethoxybenzyl)-piperazine] [listing 1 of 2 here]
- percent lengthening of refractory period at 0.01 µM [1]: 46%

Compound: COc1ccc(CC2(C)CN(C(c3ccccc3)c3ccccc3)CCN2)cc1OC (stereo not drawn) [1-diphenylmethyl-3-methyl-3-(3,4-dimethoxybenzyl)-piperazine] [listing 2 of 2 here]
- effectiveness (in words) [1]: outstanding

Compound: CCN1CCN(C(c2ccccc2)c2ccccc2)CC1(C)Cc1ccc(OC)c(OC)c1 (stereo not drawn) [(D)-1-diphenylmethyl-3-methyl-3-(3,4-dimethoxybenzyl)-4-ethy] [(D)-1-diphenylmethyl-3-methyl-3-(3,4-dimethoxybenzyl)-4-ethyl-piperazine]
- Antiarrhythmic Effect (Lengthening of the refractory period in percent) [1]: 50%

Compound: COc1ccc(CC2(C)CN(C(c3ccccc3)c3ccccc3)CCN2CCO)cc1OC (stereo not drawn) [(D)-1-diphenylmethyl-3-methyl-3-(3,4-dimethoxybenzyl)-4-hydr] [(D)-1-diphenylmethyl-3-methyl-3-(3,4-dimethoxybenzyl)-4-hydroxyethyl-piperazine]
- Antiarrhythmic Effect (Lengthening of the refractory period in percent) [1]: 72%

Compound: COc1ccc(CC2(C)CN(C(c3ccccc3)c3ccccc3)CCN2C)cc1OC (stereo not drawn) [(D)-1-diphenylmethyl-3-methyl-3-(3,4-dimethoxybenzyl)-4-meth] [(D)-1-diphenylmethyl-3-methyl-3-(3,4-dimethoxybenzyl)-4-methyl-piperazine]
- higher dose of aconitine required before the appearance of extrasystoles [2]: 68%
- higher dose of aconitine required before the appearance of ventricular flutter [2]: 70%
- higher dose of aconitine required before the appearance of ventricular tachycardia [2]: 75%
- Inotropic Effect (Decrease in Contractile Force) ED25 [3]: 0.0093
- Antiarrhythmic Effect (Lengthening of the Refractory Period) ED25 [1]: 0.0063
- Antiarrhythmic Effect (Lengthening of the refractory period in percent) [1]: 50%

Compound: COc1ccc(CC2(C)CN(C(c3ccccc3)c3ccccc3)CCN2C)cc1OC (stereo not drawn) [(D)-1-diphenylmethyl-3-methyl-3-(3,4-dimethoxybenzyl)-4-methyl-piperazine]
- selectivity ratio [4]: 1.5
- ED25 ([5]; iv, read-out: Extrasystoles ED25): 0.94 mg/kg
- ED50 ([5]; iv, read-out: Extrasystoles ED50): 1.21 mg/kg
- ED25 ([5]; iv, read-out: Ventricular Flutter ED25): 0.84 mg/kg
- ED50 ([5]; iv, read-out: Ventricular Flutter ED50): 1.23 mg/kg
- ED25 ([5]; iv, read-out: Ventricular Tachycardia ED25): 0.94 mg/kg
- ED50 ([5]; iv, read-out: Ventricular Tachycardia ED50): 1.26 mg/kg

Compound: CCCCN1CCN(C(c2ccccc2)c2ccccc2)CC1(C)Cc1ccc(OC)c(OC)c1 (stereo not drawn) [(D)-1-diphenylmethyl-3-methyl-3-(3,4-dimethoxybenzyl)-4-n-butyl-piperazine]
- percent lengthening of refractory period at 0.01 µM [1]: 31%

Compound: CCCN1CCN(C(c2ccccc2)c2ccccc2)CC1(C)Cc1ccc(OC)c(OC)c1 (stereo not drawn) [(D)-1-diphenylmethyl-3-methyl-3-(3,4-dimethoxybenzyl)-4-n-propyl-piperazine]
- percent lengthening of refractory period at 0.01 µM [1]: 51%

Compound: COc1ccc(CC2(C)CN(C(c3ccccc3)c3ccccc3)CCN2)cc1OC (stereo not drawn) [(D)-1-diphenylmethyl-3-methyl-3-(3,4-dimethoxybenzyl)-pipera] [(D)-1-diphenylmethyl-3-methyl-3-(3,4-dimethoxybenzyl)-piperazine]
- Antiarrhythmic Effect (Lengthening of the refractory period in percent) [1]: 31%

Compound: CCN1CCN(C(c2ccccc2)c2ccccc2)CC1(C)Cc1ccc(OC)c(OC)c1 (stereo not drawn) [(L)-1-diphenylmethyl-3-methyl-3-(3,4-dimethoxybenzyl)-4-ethyl-piperazine]
- percent lengthening of refractory period at 0.01 µM [1]: 48%

Compound: COc1ccc(CC2(C)CN(C(c3ccccc3)c3ccccc3)CCN2C)cc1OC (stereo not drawn) [(L)-1-diphenylmethyl-3-methyl-3-(3,4-dimethoxybenzyl)-4-meth] [(L)-1-diphenylmethyl-3-methyl-3-(3,4-dimethoxybenzyl)-4-methyl-piperazine]
- Inotropic Effect (Decrease in Contractile Force) ED25 [3]: 0.0052
- Therapeutic Breadth (III/II) [3]: 0.9
- Antiarrhythmic Effect (Lengthening of the Refractory Period) ED25 [1]: 0.0056
- Antiarrhythmic Effect (Lengthening of the refractory period in percent) [1]: 73%

Compound: CC[C@H]1[C@@H]2C[C@H]3[C@@H]4N(C)c5ccccc5[C@]45C[C@@H]([C@@H]2[C@H]5O)N3[C@@H]1O [Ajmaline, reference compound]
- percent lengthening of refractory period at 0.01 µM [1]: 14%

Compound: c1ccc(CN(CC2=NCCN2)c2ccccc2)cc1 [Antazoline, reference compound]
- selectivity ratio [4]: 0.6
- Inotropic Effect (Decrease in Contractile Force) ED25 [3]: 0.094
- Antiarrhythmic Effect (Lengthening of the Refractory Period) ED25 [1]: 0.164

Compound: CCC[N+]12[C@H](O)[C@@H](CC)[C@@H]3C[C@H]1[C@@H]1N(C)c4ccccc4[C@]14C[C@H]2[C@@H]3[C@H]4O [N-n-propylajmaline, reference compound]
- Inotropic Effect (Decrease in Contractile Force) ED25 [3]: 0.0015
- Therapeutic Breadth (III/II) [3]: 0.4
- Antiarrhythmic Effect (Lengthening of the Refractory Period) ED25 [1]: 0.0037

Compound: CCN(CC)CCNC(=O)c1ccc(N)cc1 [Procainamide]
- higher dose of aconitine required before the appearance of extrasystoles [2]: 16%
- higher dose of aconitine required before the appearance of ventricular flutter [2]: 29%
- higher dose of aconitine required before the appearance of ventricular tachycardia [2]: 12%
- ED25 ([5]; intravenous, dose raising administered aconitine dose by 25 percent prior to extrasystoles, read-out: Extrasystoles ED25): 6.8 mg/kg
- ED25 [5, 6]: 6.8 mg/kg
- ED50 ([5]; intravenous, dose raising administered aconitine dose by 50 percent prior to extrasystoles, read-out: Extrasystoles ED50): 52.6 mg/kg
- ED50 [5, 7]: 29.1 mg/kg
- Ventricular Flutter ED25 ([5]; intravenous): +
- Ventricular Flutter ED50 ([5]; intravenous): +

Compound: C1CCN2C[C@@H]3C[C@@H](CN4CCCC[C@@H]34)[C@H]2C1 [Sparteine]
- ED25 [5, 6]: 4.4 mg/kg
- ED50 [5, 7]: 9.5 mg/kg
- Extrasystoles ED25 ([5]; intravenous, dose raising administered aconitine dose by 25 percent prior to extrasystoles): +
- Ventricular Flutter ED25 ([5]; intravenous): +
- Extrasystoles ED50 ([5]; intravenous, dose raising administered aconitine dose by 50 percent prior to extrasystoles): +
- Ventricular Flutter ED50 ([5]; intravenous): +

Source: patent US3996360A, “Piperazine compounds” (Knoll A.G. Chemische Fabriken, priority 1974, dated 1976)
